Converted amounts (≈) assume the structure as drawn. Read-outs that look alike come from different tables or passages of the source.
Tests used:
Trichophyton ajelloi = assay: Antifungal activity, agar dilution method; type: cell-based; settings: Arthroderma uncinatum, T. ajelloi, read-out: Parts Per Million Inhibitions of T. ajelloi
Procedure: (§1) various compounds of this invention display antifungal and anti-yeast activity.
(§2) In Table IX below are listed the antifungal activity of a number of compounds encompassed in the present invention. These were determined by the agar dilution method as described in Chapters 2 and 3 of Methods in Microbiology, Vol. 7B, edited by J. R. Norris and D. W. Ribbons, Academic Press, New York, 1972.

[1] = test system: Trichophyton mentagrophytes; assay: Antifungal activity, agar dilution method; type: cell-based, Trichophyton mentagrophytes (ATCC No. 8757 and 9129); settings: T. mentagrophytes, read-out: Parts Per Million Inhibitions of T. mentagrophytes
Procedure: as §1, §2

Trichophyton rubrum = assay: Antifungal activity, agar dilution method; type: cell-based, Trichophyton rubrum (ATCC No. 10218 and 14001); settings: T. rubrum, read-out: Parts Per Million Inhibitions of T. rubrum
Procedure: as §1, §2

[2] = test system: carrageenan rat paw edema; assay: Rat Paw Edema Assay, Local Administration; type: in vivo; settings: read-out: % Difference from Control; for change in vivo at 0.001 mg: 1 μg; for change in vivo at 0.001 mg / change in vivo at 0.01 mg / change in vivo at 0.1 mg: injected directly into paw; for change in vivo at 0.01 mg: 10 μg; for change in vivo at 0.1 mg: 100 μg; for change in vivo at 100 mg/kg: local administration
Procedure: (§3) The anti-inflammatory activity of representative compounds of this invention was determined by the rat paw edema assay both by local administration (Table XI below) and by oral dosing (Table XII below). For the oral dosing, the procedure of C. A. Winter, E. A. Risley and G. W. Nuss, Proc. Soc. Exp. Biol. Med. III, 544 (1962) was employed with measurement taken four hours after the drug was administered. The local administration tests were carried out similarly except the irritant (carrageenan) and the test compound were injected simultaneously at time zero.
(§4) Tables XI and XII report the anti-inflammatory activity of the compounds tested as % difference in the edema or swelling as compared with the control. These Tables also give the response in many instances of more than one dose level of the same drug.

[3] = test system: carrageenan rat paw edema; assay: Rat Paw Edema Assay, Oral Dosing; type: in vivo; settings: 4 h, 100 mg/kg oral, four hours after drug, read-out: % Difference from Control
Procedure: as §3, §4

[4] = test system: cell-mediated immune response to the antigen, Mycobacterium tuberculosis H37Ra; assay: delayed hypersensitivity test; type: in vivo, mouse; settings: Mus musculus, sc, read-out: D.H.S. (ED60)
Procedure: The immunosuppressant activities of the compounds of this invention were determined via the hemolysin test in mice and by the delayed hypersensitivity test. The hemolysin test used is that described in Methods in Immunology, edited by D. H. Campbell et al, W. A. Benjamin, New York 1963 pages 172-175, and measures humeral or antibody response. The delayed hypersensitivity test measures the effect of a test compound on the ability of a subject mouse to mount a cell-mediated immune response to the antigen, Mycobacterium tuberculosis H37Ra. The mouse is sensitized to the antigen by subcutaneous administration in the base of the tail. The development of the delayed hypersensitivity response may be measured at any time beginning six days after sensitization but is usually done on the ninth day as follows: The right hind paw is injected with purified protein derivative (tuberculin) while the left hind paw (control) receives physiological saline. Both paw volumes are measured after twenty-four hours and significant increase in the volume of the right hand paw is taken as a measure of an effective delayed hypersensitivity response. All compounds were administered by the subcutaneous route.
The D.H.S. (ED60) mg./kg. s.c. value appearing in column 3 is an expression of the effectiveness of the drug in reducing the edema that accompanies the cell-mediated immune response. It is a measure of the number of milligrams per kilogram of body weight of the drug administered subcutaneously which is required to reduce the edema of the cell-mediated immune response by 60% when compared to the control.

[5] = test system: humeral or antibody response; assay: hemolysin test in mice; type: in vivo; settings: Mus musculus, sc, dose reducing antibody activity by 50% vs control, read-out: HL(ED50)
Candida tropicalis = assay: Antifungal activity, agar dilution method; type: cell-based; settings: C. tropicalis, read-out: Parts Per Million Inhibitions of C. tropicalis
Procedure: as §1, §2

[6] = mice, dose reducing edema of cell-mediated immune response by 60% vs control

| SMILES | MIC (Trichophyton ajelloi) | MIC [1] | MIC (Trichophyton rubrum) | change in vivo at 100 mg/kg [3] | other results |
| --- | --- | --- | --- | --- | --- |
| c1ccc2c(c1)nc(NC1CCCCC1)c1nccn12 [Compound 167] | 100 µg/mL (≈ 375 µM) | 100 µg/mL (≈ 375 µM) | 100 µg/mL (≈ 375 µM) |  |  |
| CCCCCc1nc2ccccc2n2ccnc12 [Compound 114] |  | 16 µg/mL (≈ 66.9 µM) | 1 µg/mL (≈ 4.18 µM) | -61% | change in vivo at 0.001 mg [2]: 68.2%; change in vivo at 0.01 mg [2]: -30%; change in vivo at 0.1 mg [2]: -132% |
| Fc1ccccc1-c1nc2ccccc2n2ccnc12 [Compound 173] | 100 µg/mL (≈ 380 µM) | 100 µg/mL (≈ 380 µM) | 100 µg/mL (≈ 380 µM) |  | ED60 [4, 6]: 40 mg/kg |
| COc1cccc(Nc2nc3ccccc3n3ccnc23)c1 [Compound 185] | 100 µg/mL (≈ 344 µM) | 100 µg/mL (≈ 344 µM) | 100 µg/mL (≈ 344 µM) |  |  |
| COc1ccc(-c2nc3ccccc3n3ccnc23)cc1 [Compound 138] | 100 µg/mL (≈ 363 µM) | 100 µg/mL (≈ 363 µM) |  |  | ED50 [5]: 0.72 mg/kg; ED60 [4, 6]: 27 mg/kg |
| O=[N+]([O-])c1ccccc1Nc1nc2ccccc2n2ccnc12 [Compound 187] | 100 µg/mL (≈ 328 µM) |  | 100 µg/mL (≈ 328 µM) |  |  |
| CC(=O)Oc1ccc(-c2nc3ccccc3n3ccnc23)cc1 [Compound 163] | 100 µg/mL (≈ 330 µM) | 100 µg/mL (≈ 330 µM) | 100 µg/mL (≈ 330 µM) |  |  |
| CCCNc1nc2ccccc2n2ccnc12 [Compound 169] | 100 µg/mL (≈ 442 µM) | 100 µg/mL (≈ 442 µM) | 100 µg/mL (≈ 442 µM) |  | ED50 [5]: 46 mg/kg; ED60 [4]: > 50 mg/kg |
| c1ccc2c(-c3nc4ccccc4n4ccnc34)cccc2c1 [Compound 160] | 100 µg/mL (≈ 339 µM) | 100 µg/mL (≈ 339 µM) | 100 µg/mL (≈ 339 µM) |  |  |
| O=C(Nc1ccccc1-n1ccnc1)c1ccc(Cl)cc1 [Compound 51] |  |  |  | -57% | change in vivo at 100 mg/kg [2]: -57% |
| O=C(Nc1ccccc1-n1ccnc1)c1ccccc1Cl [Compound 49] |  |  |  | -35% | change in vivo at 100 mg/kg [2]: -35% |
| c1ccc(-c2ccc(-c3nc4ccccc4n4ccnc34)cc2)cc1 [Compound 135] | 100 µg/mL (≈ 311 µM) | 100 µg/mL (≈ 311 µM) |  |  | ED50 [5]: 0.033 mg/kg; ED60 [4, 6]: 0.22 mg/kg |
| COc1ccccc1C(=O)Nc1ccccc1-n1ccnc1 [Compound 58] | 100 µg/mL (≈ 341 µM) | 100 µg/mL (≈ 341 µM) | 100 µg/mL (≈ 341 µM) |  |  |
| CCCCNc1nc2ccccc2n2ccnc12 [Compound 168] | 100 µg/mL (≈ 416 µM) | 100 µg/mL (≈ 416 µM) | 100 µg/mL (≈ 416 µM) |  |  |
| CC(C)(C)c1ccc(C(=O)Nc2ccccc2-n2ccnc2)cc1 [Compound 39] | 100 µg/mL (≈ 313 µM) | 100 µg/mL (≈ 313 µM) |  | -50% |  |
| COc1cccc(-c2nc3ccccc3n3ccnc23)c1 [Compound 159] | 100 µg/mL (≈ 363 µM) | 100 µg/mL (≈ 363 µM) | 100 µg/mL (≈ 363 µM) |  | ED50 [5]: 3 mg/kg; ED60 [4, 6]: 27 mg/kg |
| O=C(Nc1ccccc1-n1ccnc1)c1ccc2ccccc2c1 [Compound 62] | 100 µg/mL (≈ 319 µM) | 100 µg/mL (≈ 319 µM) | 100 µg/mL (≈ 319 µM) |  |  |
| O=[N+]([O-])c1ccc(Nc2nc3ccccc3n3ccnc23)cc1 [Compound 189] | 100 µg/mL (≈ 328 µM) |  | 100 µg/mL (≈ 328 µM) |  |  |

| SMILES | MIC (Trichophyton ajelloi) | MIC [1] | MIC (Trichophyton rubrum) | change in vivo at 100 mg/kg [3] | other results |
| --- | --- | --- | --- | --- | --- |
| CCCCCCCCCC(=O)Oc1ccc(-c2nc3ccccc3n3ccnc23)cc1 [Compound 165] | 100 µg/mL (≈ 241 µM) | 100 µg/mL (≈ 241 µM) | 100 µg/mL (≈ 241 µM) |  |  |
| c1ccc(OCc2nc3ccccc3n3ccnc23)cc1 [Compound 126] | 100 µg/mL (≈ 363 µM) | 100 µg/mL (≈ 363 µM) | 100 µg/mL (≈ 363 µM) |  | ED50 [5]: 35 mg/kg; ED60 [4, 6]: > 50 mg/kg |
| COc1ccc(Nc2nc3ccccc3n3ccnc23)cc1 [Compound 186] | 100 µg/mL (≈ 344 µM) | 100 µg/mL (≈ 344 µM) | 100 µg/mL (≈ 344 µM) |  |  |
| O=C(C=Cc1ccccc1)Nc1ccccc1-n1ccnc1 [Compound 20] | 100 µg/mL (≈ 346 µM) | 100 µg/mL (≈ 346 µM) |  | -59% |  |
| O=C(O)c1ccccc1-c1nc2ccccc2n2ccnc12 [Compound 148] |  |  |  | -52% | change in vivo at 0.001 mg [2]: -32.6%; change in vivo at 0.01 mg [2]: -53.5%; change in vivo at 0.1 mg [2]: -14.3%; change in vivo at 100 mg/kg [2]: -39% |
| Cc1ccc(-c2nc3ccccc3n3ccnc23)cc1 [Compound 134] | 100 µg/mL (≈ 386 µM) | 16 µg/mL (≈ 61.7 µM) |  | -43% | ED50 [5]: 0.5 mg/kg; ED60 [4, 6]: 7.2 mg/kg |
| Clc1cccc(Nc2nc3ccccc3n3ccnc23)c1 [Compound 179] | 100 µg/mL (≈ 339 µM) | 100 µg/mL (≈ 339 µM) | 100 µg/mL (≈ 339 µM) |  |  |
| Clc1ccc(-c2nc3ccccc3n3ccnc23)cc1 [Compound 140] |  |  | < 0.5 µg/mL | -35% | ED50 [5]: 0.26 mg/kg; ED60 [4, 6]: 1.15 mg/kg; change in vivo at 100 mg/kg [2]: -78% |
| c1ccc2c(c1)nc(C1CCCCC1)c1nccn12 [Compound 129] | 16 µg/mL (≈ 63.7 µM) | 16 µg/mL (≈ 63.7 µM) | 8 µg/mL (≈ 31.8 µM) | -30% |  |
| FC(F)(F)c1nc2ccccc2n2ccnc12 [Compound 122] |  |  | 32 µg/mL (≈ 135 µM) | -61% | change in vivo at 100 mg/kg [2]: -61% |
| Brc1ccccc1-c1nc2ccccc2n2ccnc12 [Compound 145] | 100 µg/mL (≈ 308 µM) | 100 µg/mL (≈ 308 µM) | 100 µg/mL (≈ 308 µM) |  |  |
| CCCCCCC(=O)Nc1ccccc1-n1ccnc1 [Compound 7] |  |  |  | -52% | change in vivo at 100 mg/kg [2]: -22% |
| CC(C)(C)c1ccc(-c2nc3ccccc3n3ccnc23)cc1 [Compound 137] | 100 µg/mL (≈ 332 µM) | 100 µg/mL (≈ 332 µM) |  | -26% | ED50 [5]: < 0.125 mg/kg; ED60 [4, 6]: 3.2 mg/kg |
| Nc1ccc(-c2nc3ccccc3n3ccnc23)cc1 [Compound 153] |  |  |  |  | MIC (Candida tropicalis): 100 µg/mL (≈ 384 µM); ED50 [5]: 1.2 mg/kg; ED60 [4, 6]: 5.7 mg/kg |
| CCCC(=O)Oc1ccc(-c2nc3ccccc3n3ccnc23)cc1 [Compound 164] | 100 µg/mL (≈ 302 µM) | 100 µg/mL (≈ 302 µM) | 100 µg/mL (≈ 302 µM) |  |  |
| COc1ccccc1Nc1nc2ccccc2n2ccnc12 [Compound 184] | 100 µg/mL (≈ 344 µM) | 100 µg/mL (≈ 344 µM) | 100 µg/mL (≈ 344 µM) |  |  |
| Cc1ccccc1-c1nc2ccccc2n2ccnc12 [Compound 132] | 100 µg/mL (≈ 386 µM) | 100 µg/mL (≈ 386 µM) |  | -76% |  |
| Cc1ccccc1C(=O)Nc1ccccc1-n1ccnc1 [Compound 35] | 100 µg/mL (≈ 361 µM) | 16 µg/mL (≈ 57.7 µM) |  | -50% |  |

Source: patent publication US4160097A, “1-(2-Phenylureylene)imidazoles” (Westwind Pharmaceuticals, Inc., priority 1977, dated 1979)
